Assay results from patent publication US5081131A, “Omega-((hetero)alkyl)benz(cd)-indol-2-amines” (American Cyanamid Company, priority 1988, dated 1992).

Tested on: spontaneously hypertensive rats
Assay: Hypotensive activity in spontaneously hypertensive rats (MABP)
Format: in vivo, rat (Okamoto strain)
Details: SHR, gavage, two doses of 10 mg/kg or less 24 h apart, MABP at 28 h; average baseline 160±1.5 mm Hg
Protocol: The novel compounds of the present invention are active hypotensive agents and were tested for hypotensive activity by the method of P. S. Chan and D. Poorvin, Clinical and Experimental Hypertension, 1 (6), 817-830 (1979). Male, 16 week old, spontaneously hypertensive rats of the Okamoto strain, from Taconic Farms, Germantown, N.Y., having an average mean arterial blood pressure of 160±1.5 mm of mercury, were used in the test. One to 4 rats were used per test compound. A rat was dosed by gavage with a test compound, suspended in 2% pre-boiled starch at a concentration of 50 mg/ml, at a doses of 10 mg/kg of body weight or less, with 0.9% sodium chloride loading at a dose of 25 ml/kg of body weight. A second identical dose of the test compound, without sodium chloride loading was given 24 hours later. At 28 hours after initial dose the mean arterial blood pressure (MABP) was measured. The procedure was repeated in a second and third rat when necessary.

| SMILES | Avg. MABP in mm Hg (No. of Rats) [mm Hg] |
| --- | --- |
| CCC(CC)(CNC1=Nc2cccc3cccc1c23)Cn1ccnc1 [N-(2-Ethyl-2-(1H-imidazol-1-yl)methyl)butylbenz(cd)indol-2-amine sesqui-fumarate] | 112 |
| CC(CCNC1=Nc2c(Cl)cc(Cl)c3cccc1c23)n1ccnc1.Cl.Cl (centres unmarked) [6,8-Dichloro-N-(3-(1H-imidazol-1-yl)butyl)benz(cd)indol-2-amine dihydrochloride] | 134 |
| Fc1ccc2c3c(cccc13)C(NCCCn1ccnc1)=N2 [6-Fluoro-N-(3-(1H-imidazol-1-yl)propyl)benz(cd)indol-2-amine] | 94 |
| CC(=O)N(CCCn1cncn1)C1=Nc2cccc3cccc1c23 [N-Benz(cd)indol-2-yl-N-(3-(1H-1,2,4-triazol-1-yl)propyl)acetamide] | 118 |
| Cc1csc(CCCNC2=Nc3cccc4cccc2c34)n1.O=C(O)/C=C/C(=O)O [N-(3-(4-Methyl-2-thiazolyl)propyl)benz(cd)indol-2-amine fumarate] | 122 |
| CCCCCC(=O)N(CCCCn1ccnc1)C1=Nc2cccc3cccc1c23 [N-Benz(cd)indol-2-yl-N-(4-(1H-imidazol-1-yl)butyl)hexanamide] | 102 |
| CC(CNC1=Nc2ccc(Br)c3cccc1c23)Cn1ccnc1.Cl.Cl (centres unmarked) [6-Bromo-N-(3-(1H-imidazol-1-yl)-2-methylpropyl)benz(cd)indol-2-amine, dihydrochloride] | 107 |
| O=C(c1ccc(F)cc1)N(CCCCn1ccnc1)C1=Nc2cccc3cccc1c23 [N-Benz(cd)indol-2-yl-N-(4-(1H-imidazol-1-yl)butyl)-4-fluorobenzamide] | 85 |
| O=C(c1cccc(C(F)(F)F)c1)N(CCCCc1cccnc1)C1=Nc2cccc3cccc1c23 [N-Benz(cd)indol-2-yl-N-(4-(3-pyridinyl)butyl)-3-trifluoromethylbenzamide] | 115 |
| CN(CCCn1ccnc1)C1=Nc2cccc3cccc1c23 [N-(3-1H-imidazol-1-yl)propyl)-N-methylbenz(cd)indol-2-amine] | 95 |
| O=C(c1ccc(Cl)c(Cl)c1)N(CCCCn1ccnc1)C1=Nc2cccc3cccc1c23 [N-Benz(cd)indol-2-yl-3,4-dichloro-N-(4-(1H-imidazol-1-yl)butyl)benzamide] | 96 |
| c1cc2c3c(cccc3c1)C(NCCCCn1ccnc1)=N2 [N-(4-(1H-imidazol-1-yl)butyl)benz(cd)indol-2-amine, hydriodide] | 74 |
| c1cncc(CCCCNC2=Nc3cccc4cccc2c34)c1 [N-(4-(3-Pyridinyl)butyl)benz(cd)indol-2-amine sesqui-fumarate] | 95 |
| O=C(c1cccc(C(F)(F)F)c1)N(CCCCn1ccnc1)C1=Nc2cccc3cccc1c23 [N-Benz(cd)indol-2-yl-N-(4-(1H-imidazol 1-yl)butyl)-3-trifluoromethylbenzamide] | 77 |
| Clc1ccc(C(Cn2cncn2)NC2=Nc3cccc4cccc2c34)cc1.O=C(O)/C=C/C(=O)O (centres unmarked) [N-(1-(4-Chlorophenyl)-2-(1H-1,2,4-triazol-1-yl)ethyl)benz(cd)indol-2-amine fumarate] | 142 |
| O=C(c1ccco1)N(CCCCn1ccnc1)C1=Nc2cccc3cccc1c23 [N-(Benz(cd)indol-2-yl)-N-(4-(1H-imidazol-1-yl)butyl)-2-furancarboxamide] | 96 |
| O=C(O)/C=C/C(=O)O.c1cc2c3c(cccc3c1)C(NCCn1ccnc1)=N2 [N-(2-(1H-imidazol-1-yl)ethyl)benz(cd)indol-2-amine, fumarate] | 97 |
| O=C(c1ccccc1Cl)N(CCCCn1ccnc1)C1=Nc2cccc3cccc1c23 [N-Benz(cd)indol-2-yl-2-chloro-N-(4-(1-imidazol-1-yl)butyl)benzamide] | 80 |
| CCCCC(=O)N(CCCCn1ccnc1)C1=Nc2cccc3cccc1c23 [N-Benz(cd)indol-2-yl-N-(4-(1H-imidazol-1-yl)butyl)pentanamide] | 84 |
| O=C(c1ccccc1)N(CCCCn1ccnc1)C1=Nc2cccc3cccc1c23 [N-Benz(cd)indol-2-yl-N-(4-(1H-imidazol-1-yl)butyl)benzamide] | 80 |
| O=C(c1cccs1)N(CCCCn1ccnc1)C1=Nc2cccc3cccc1c23 [N-Benz(cd)indol-2-yl-N-(4-(1H-imidazol-1-yl)butyl)-2-thiophenecarboxamide] | 86 |

| SMILES | Avg. MABP in mm Hg (No. of Rats) [mm Hg] |
| --- | --- |
| O=C(O)/C=C/C(=O)O.c1ccc(CSCCNC2=Nc3cccc4cccc2c34)nc1 [N-(2-((2-pyridinylmethyl)thio)ethyl)benz(cd)indol-2-amine fumarate] | 143 |
| CC(CNC1=Nc2c(Cl)cc(Cl)c3cccc1c23)Cn1ccnc1 (centres unmarked) [6,8-Dichloro-N-(3-(1H-imidazol-1-yl)-2-methylpropyl)benz(cd)indol-2-amine sesqui-furamate] | 116 |
| CC(=O)N(CCCn1ccnc1)C1=Nc2cccc3cccc1c23 [N-Benz(cd)indol-2-yl-N-(3-(1H-imidazol-1-yl)propyl)acetamide] | 102 |
| O=C(O)/C=C/C(=O)O.O=C(O)/C=C/C(=O)O.OC(CNC1=Nc2cccc3cccc1c23)Cn1ccnc1 (centres unmarked) [N-(3-(1H-imidazol-1-yl)-2-hydroxypropyl)benz(cd)indol-2-amine bis-fumarate] | 132 |
| CCCCCCC(=O)N(CCCCn1ccnc1)C1=Nc2cccc3cccc1c23 [N-Benz(cd)indol-2-yl-N-(4-(1H-imidazol-1-yl)butyl)heptanamide] | 76 |
| C(=Cc1cccnc1)CCCNC1=Nc2cccc3cccc1c23 [N-(5-(3-Pyridinyl)-4-pentenyl)benz(cd)indol-2-amine sesqui-fumarate] | 140 |
| Cc1ccc(C(=O)N(CCCCn2ccnc2)C2=Nc3cccc4cccc2c34)cc1 [N-(Benz(cd)indol-2-yl)-N-(4-(1H-imidazol-1-yl)butyl)-4-methylbenzamide] | 82 |
| c1cc2c3c(cccc3c1)C(NOCCCCn1ccnc1)=N2 [N-(4-(1H-imidazol-1-yl)butoxy)benz(cd)indol-2-amine] | 111 |
| Clc1ccc2c3c(cccc13)C(NCCCn1ccnc1)=N2 [6-Chloro-N-(3-(1H-imidazol-l-yl)propyl)benz(cd)indol-2-amine] | 124 |
| O=C(Nc1ccccc1)N(CCCn1ccnc1)C1=Nc2cccc3cccc1c23 [N-Benz(cd)indol-2-yl-N-(3-(1H-imidazol-1-yl)propyl)-N'-phenylurea] | 145 |
| O=C(O)/C=C/C(=O)O.O=C(O)/C=C/C(=O)O.c1cc2c3c(cccc3c1)C(NCCCn1ccnc1)=N2 [N-(3-(1H-imidazol-1-yl)propyl)benz(cd)indol-2-amine, bis-fumarate] | 81 |
| c1cc2c3c(cccc3c1)C(NCCCCCCCn1ccnc1)=N2 [N-(7-(1H-imidazol-1-yl)heptyl)benz(cd)indol-2-amine] | 127 |
| CCC(=O)N(CCCCn1ccnc1)C1=Nc2cccc3cccc1c23 [N-Benz(cd)indol-2-yl-N-(4-(1H-imidazol-1-yl)butyl)propanamide] | 83 |
| Cl.Cl.Clc1cc(Cl)c2cccc3c2c1N=C3NCCCCCCCn1ccnc1 [6,8-Dichloro-N-(7-(1H-imidazol-1-yl)heptyl)benz(cd)indol-2-amine dihydrochloride] | 130 |
| C(=C/Cn1ccnc1)/CNC1=Nc2cccc3cccc1c23.O=C(O)/C=C/C(=O)O [(Z)-N-(4-(1H-imidazol-1-yl)-2-butenyl)benz(cd)indol-2-amine, fumarate] | 102 |
| C[N+]1=C(NCCCCn2cc[n+](C)c2)c2cccc3cccc1c23.[I-].[I-] [N-(4-(1H-imidazol-1-yl)butyl)benz(cd)indol-2-amine dimethiodide] | 110 |
| Cc1cn(CCCNC2=Nc3cccc4cccc2c34)cn1.Cl.Cl [N-(3-(4-methyl-1H-imidazol-1-yl)propyl)benz(cd)indol-2-amine, dihydrochloride] | 106 |
| Cl.Cl.c1cc2c3c(cccc3c1)C(NCCCCCCCCCCn1ccnc1)=N2 [N-(10-(1H-imidazol-1-yl)decyl)benz(cd)indol-2-amine, dihydrochloride] | 124 |
| O=C(O)/C=C/C(=O)O.c1cc2c3c(cccc3c1)C(NCCOCCn1ccnc1)=N2 [N-(2-(2-(1H-imidazol-1-yl)ethoxy)ethyl)benz(cd)indol-2-amine, fumarate] | 108 |
| O=C(O)/C=C/C(=O)O.c1cc2c3c(cccc3c1)C(NCCCn1cccn1)=N2 [N-(3-(1H-Pyrazol-1-yl)propyl)benz(cd)indol-2-amine fumarate] | 141 |
